Assay results reported in ChEMBL document CHEMBL3875185, “Structure-anticonvulsant activity studies in the group of (E)-N-cinnamoyl aminoalkanols derivatives monosubstituted in phenyl ring with 4-Cl, 4-CH3 or 2-CH3” (Bioorg Med Chem, 2017).
Activity calls are given as the source filed them. The rule behind the calls is not given here.

Experiments:
[1] = Protection index, ratio of TD50 for neurotoxicity in ip dosed mouse to ED50 for ip dosed maximal electroshock induced seizure mouse model; assay type: toxicity, organism-based; conditions: in vivo, read-out: Ratio TD50/ED50
[2] = Protection index, ratio of TD50 for neurotoxicity in ip dosed mouse to ED50 for ip dosed 6-Hz induced seizure mouse model at 32 mA; assay type: toxicity, organism-based; conditions: in vivo, read-out: Ratio TD50/ED50
[3] = target: Beta-2 adrenergic receptor (Homo sapiens) (UniProt P07550); test: Displacement of [3H]CGP 12177 from human recombinant beta2 adrenergic receptor expressed in CHO cells at 100 uM measured after 120 mins by scintillation counting method relative to control; assay type: cell-based
[4] = Protection index, ratio of TD50 for neurotoxicity in po dosed Sprague-Dawley rat model to ED50 for po dosed maximal electroshock induced seizure Sprague-Dawley rat model; assay type: toxicity, organism-based; conditions: in vivo, read-out: Ratio TD50/ED50
[5] = target: Beta-1 adrenergic receptor (Homo sapiens) (UniProt P08588); test: Displacement of [3H]CGP 12177 from human recombinant beta1 adrenergic receptor expressed in HEK293 cells at 100 uM measured after 60 mins by scintillation counting method relative to control; assay type: cell-based
[6] = species: Rattus norvegicus; test: Displacement of [3H]TCP from rat cerebral cortex phencyclidine receptor at 100 uM measured after 120 mins by scintillation counting method relative to control
[7] = target: T1, Muscarinic acetylcholine receptor M5 (Homo sapiens) (UniProt P08912); test: Displacement of [3H]4-DAMP from human recombinant M5 receptor expressed in CHO cells at 100 uM measured after 60 mins by scintillation counting method relative to control; assay type: cell-based
T1 sequence (whole entry): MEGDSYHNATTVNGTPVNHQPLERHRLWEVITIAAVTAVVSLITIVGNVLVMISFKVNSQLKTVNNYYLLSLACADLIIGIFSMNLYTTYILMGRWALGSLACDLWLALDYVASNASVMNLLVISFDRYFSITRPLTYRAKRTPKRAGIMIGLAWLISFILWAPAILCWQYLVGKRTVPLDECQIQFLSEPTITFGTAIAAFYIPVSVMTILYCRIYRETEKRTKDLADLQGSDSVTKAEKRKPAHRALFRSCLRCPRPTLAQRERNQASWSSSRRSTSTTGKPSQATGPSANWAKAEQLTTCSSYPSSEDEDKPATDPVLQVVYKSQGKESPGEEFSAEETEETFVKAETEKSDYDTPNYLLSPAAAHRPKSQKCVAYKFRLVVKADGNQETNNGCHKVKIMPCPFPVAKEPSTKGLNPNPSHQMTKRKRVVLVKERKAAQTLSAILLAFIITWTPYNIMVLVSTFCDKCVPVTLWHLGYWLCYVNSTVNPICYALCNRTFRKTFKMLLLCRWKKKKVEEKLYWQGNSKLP

[8] = target: 5-hydroxytryptamine receptor 5A (Homo sapiens) (UniProt P47898); test: Displacement of [3H]LSD from human recombinant 5HT5A receptor expressed in HEK293 cells at 100 uM measured after 120 mins by scintillation counting method relative to control; assay type: cell-based
[9] = target: 5-hydroxytryptamine receptor 6 (Homo sapiens) (UniProt P50406); test: Displacement of [3H]LSD from human recombinant 5HT6 receptor expressed in CHO cells at 100 uM measured after 120 mins by scintillation counting method relative to control; assay type: cell-based
[10] = test system: Rattus norvegicus; test: Neurotoxicity in Sprague-Dawley rat assessed as behavioral change at 30 mg/kg, po measured at 0.5 hrs post dose; assay type: toxicity, organism-based; conditions: in vivo
[11] = species: Rattus norvegicus; test: Displacement of [35S]dATPaS from rat cerebral cortex P2Y receptor at 100 uM measured after 60 mins by scintillation counting method relative to control
[12] = target: T2, 5-hydroxytryptamine receptor 2C (Homo sapiens) (UniProt P28335); test: Displacement of [3H]mesulergine from human recombinant 5HT2C receptor expressed in HEK293 cells at 100 uM measured after 120 mins by scintillation counting method relative to control; assay type: cell-based
T2 sequence (whole entry): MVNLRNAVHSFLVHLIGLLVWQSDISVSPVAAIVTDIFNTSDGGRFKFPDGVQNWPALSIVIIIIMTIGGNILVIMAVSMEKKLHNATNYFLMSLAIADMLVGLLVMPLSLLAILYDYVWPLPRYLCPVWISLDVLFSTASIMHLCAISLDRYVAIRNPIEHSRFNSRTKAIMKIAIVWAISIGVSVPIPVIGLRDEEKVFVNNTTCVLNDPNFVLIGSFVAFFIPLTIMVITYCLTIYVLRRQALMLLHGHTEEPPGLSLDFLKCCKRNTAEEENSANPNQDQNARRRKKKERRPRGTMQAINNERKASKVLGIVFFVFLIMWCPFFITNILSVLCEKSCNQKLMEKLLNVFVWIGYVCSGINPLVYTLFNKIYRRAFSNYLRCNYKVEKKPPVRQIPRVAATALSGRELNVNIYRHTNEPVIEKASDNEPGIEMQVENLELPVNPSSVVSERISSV

[13] = Protection index, ratio of TD50 for neurotoxicity in ip dosed Sprague-Dawley rat model to ED50 for ip dosed pentylenetetrazole induced seizure Sprague-Dawley rat model; assay type: toxicity, organism-based; conditions: in vivo, read-out: Ratio TD50/ED50
[14] = test system: Mus musculus; test: Anticonvulsant activity in pentylenetetrazole induced seizure mouse model assessed as no observable episode of clonic convulsion of at least 5 secs at 300 mg/kg, ip measured at 0.5 hrs post dose; assay type: functional, organism-based
[15] = target: Melanocortin receptor 4 (Homo sapiens) (UniProt P32245); test: Displacement of [125I]NDP-a-MSH from human recombinant MC4 receptor expressed in CHO cells at 100 uM measured after 120 mins by scintillation counting method relative to control; assay type: cell-based
[16] = test system: Mus musculus; test: Anticonvulsant activity in ip dosed maximal electroshock induced seizure mouse model assessed as suppression in hindlimb tonic extension by measuring time to peak effect; assay type: functional
[17] = test system: Rattus norvegicus; test: Neurotoxicity in Sprague-Dawley rat assessed as behavioral change at 30 mg/kg, po measured at 2 hrs post dose; assay type: toxicity, organism-based; conditions: in vivo
[18] = target: T3, Endothelin-1 receptor (Homo sapiens) (UniProt P25101); test: Displacement of [125I]endothelin-1 from human recombinant ETA receptor expressed in CHO cells at 100 uM measured after 120 mins by scintillation counting method relative to control; assay type: cell-based
T3 sequence (whole entry): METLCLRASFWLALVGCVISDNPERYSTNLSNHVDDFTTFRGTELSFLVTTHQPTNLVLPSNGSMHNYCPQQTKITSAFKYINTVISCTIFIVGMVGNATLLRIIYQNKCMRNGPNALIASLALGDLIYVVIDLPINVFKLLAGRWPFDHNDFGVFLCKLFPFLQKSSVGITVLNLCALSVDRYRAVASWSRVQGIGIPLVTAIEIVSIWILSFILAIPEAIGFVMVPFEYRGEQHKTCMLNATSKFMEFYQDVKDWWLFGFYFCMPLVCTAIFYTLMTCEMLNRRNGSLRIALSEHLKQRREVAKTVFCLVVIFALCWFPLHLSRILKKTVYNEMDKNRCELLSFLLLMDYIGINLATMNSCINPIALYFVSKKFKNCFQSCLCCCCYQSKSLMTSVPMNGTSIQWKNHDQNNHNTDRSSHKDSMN

[19] = target: Sodium-dependent serotonin transporter (Homo sapiens) (UniProt P31645); test: Displacement of [3H]imipramine from human recombinant 5HT transporter expressed in CHO cells at 100 uM measured after 60 mins by scintillation counting method relative to control; assay type: cell-based
Chain of Sodium-dependent serotonin transporter (Homo sapiens) (P31645 whole entry, looked up): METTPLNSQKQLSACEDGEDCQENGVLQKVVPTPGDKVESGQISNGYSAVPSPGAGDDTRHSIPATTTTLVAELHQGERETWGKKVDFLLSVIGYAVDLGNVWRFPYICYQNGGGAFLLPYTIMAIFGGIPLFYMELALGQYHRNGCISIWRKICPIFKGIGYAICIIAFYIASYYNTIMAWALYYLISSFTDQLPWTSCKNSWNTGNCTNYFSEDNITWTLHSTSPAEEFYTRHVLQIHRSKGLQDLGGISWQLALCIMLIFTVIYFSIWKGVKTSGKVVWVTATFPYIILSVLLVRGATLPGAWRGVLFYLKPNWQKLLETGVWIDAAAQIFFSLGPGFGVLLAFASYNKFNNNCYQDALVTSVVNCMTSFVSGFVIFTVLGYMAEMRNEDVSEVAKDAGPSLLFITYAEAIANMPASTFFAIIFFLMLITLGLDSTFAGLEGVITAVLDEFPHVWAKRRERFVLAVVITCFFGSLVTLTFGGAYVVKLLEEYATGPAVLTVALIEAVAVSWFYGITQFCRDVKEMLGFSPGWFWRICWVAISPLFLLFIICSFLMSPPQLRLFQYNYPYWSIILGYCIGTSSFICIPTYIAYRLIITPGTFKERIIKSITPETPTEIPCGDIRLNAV

Chain of Beta-2 adrenergic receptor (Homo sapiens) (P07550 whole entry, looked up): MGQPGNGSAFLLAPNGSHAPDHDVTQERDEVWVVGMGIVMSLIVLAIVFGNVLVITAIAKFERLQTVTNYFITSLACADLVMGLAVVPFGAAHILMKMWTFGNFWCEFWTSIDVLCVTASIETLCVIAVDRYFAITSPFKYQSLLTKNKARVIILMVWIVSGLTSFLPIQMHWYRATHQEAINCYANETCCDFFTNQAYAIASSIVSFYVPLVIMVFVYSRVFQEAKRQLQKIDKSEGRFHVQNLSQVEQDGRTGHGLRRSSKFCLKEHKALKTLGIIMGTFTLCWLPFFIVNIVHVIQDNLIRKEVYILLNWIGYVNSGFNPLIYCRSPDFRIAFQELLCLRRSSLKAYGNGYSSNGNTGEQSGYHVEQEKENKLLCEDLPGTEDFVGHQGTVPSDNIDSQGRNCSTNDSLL
Chain of 5-hydroxytryptamine receptor 5A (Homo sapiens) (P47898 whole entry): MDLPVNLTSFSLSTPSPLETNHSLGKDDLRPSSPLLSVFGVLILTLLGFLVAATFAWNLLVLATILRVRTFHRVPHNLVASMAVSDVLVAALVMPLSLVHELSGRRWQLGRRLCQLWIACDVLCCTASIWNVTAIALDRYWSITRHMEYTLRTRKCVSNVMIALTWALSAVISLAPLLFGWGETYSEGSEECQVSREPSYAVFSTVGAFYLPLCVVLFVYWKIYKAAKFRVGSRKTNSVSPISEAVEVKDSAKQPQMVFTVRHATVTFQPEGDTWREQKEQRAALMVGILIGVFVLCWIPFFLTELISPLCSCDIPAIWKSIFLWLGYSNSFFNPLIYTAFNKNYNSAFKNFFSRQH
Chain of Melanocortin receptor 4 (Homo sapiens) (P32245 whole entry): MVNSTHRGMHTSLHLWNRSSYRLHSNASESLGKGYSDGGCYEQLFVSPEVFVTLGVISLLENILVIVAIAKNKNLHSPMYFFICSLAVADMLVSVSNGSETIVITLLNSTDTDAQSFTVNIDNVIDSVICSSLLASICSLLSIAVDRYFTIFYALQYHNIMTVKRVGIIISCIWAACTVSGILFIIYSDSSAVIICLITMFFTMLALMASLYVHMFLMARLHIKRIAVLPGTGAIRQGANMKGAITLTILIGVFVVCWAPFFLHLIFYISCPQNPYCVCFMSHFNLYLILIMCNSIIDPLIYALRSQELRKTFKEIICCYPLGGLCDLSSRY
Chain of 5-hydroxytryptamine receptor 6 (Homo sapiens) (P50406 whole entry): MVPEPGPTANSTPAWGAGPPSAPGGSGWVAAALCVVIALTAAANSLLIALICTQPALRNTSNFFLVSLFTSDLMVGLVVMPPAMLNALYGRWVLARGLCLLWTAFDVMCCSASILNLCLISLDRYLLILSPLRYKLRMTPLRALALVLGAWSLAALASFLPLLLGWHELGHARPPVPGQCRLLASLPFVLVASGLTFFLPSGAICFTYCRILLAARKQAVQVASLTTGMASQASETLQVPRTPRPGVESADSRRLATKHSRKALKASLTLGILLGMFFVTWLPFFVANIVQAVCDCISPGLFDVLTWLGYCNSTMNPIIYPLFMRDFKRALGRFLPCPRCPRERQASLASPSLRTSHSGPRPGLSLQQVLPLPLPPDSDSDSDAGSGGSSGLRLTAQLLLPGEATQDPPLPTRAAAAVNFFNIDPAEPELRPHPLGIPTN
Chain of Beta-1 adrenergic receptor (Homo sapiens) (P08588 whole entry, looked up): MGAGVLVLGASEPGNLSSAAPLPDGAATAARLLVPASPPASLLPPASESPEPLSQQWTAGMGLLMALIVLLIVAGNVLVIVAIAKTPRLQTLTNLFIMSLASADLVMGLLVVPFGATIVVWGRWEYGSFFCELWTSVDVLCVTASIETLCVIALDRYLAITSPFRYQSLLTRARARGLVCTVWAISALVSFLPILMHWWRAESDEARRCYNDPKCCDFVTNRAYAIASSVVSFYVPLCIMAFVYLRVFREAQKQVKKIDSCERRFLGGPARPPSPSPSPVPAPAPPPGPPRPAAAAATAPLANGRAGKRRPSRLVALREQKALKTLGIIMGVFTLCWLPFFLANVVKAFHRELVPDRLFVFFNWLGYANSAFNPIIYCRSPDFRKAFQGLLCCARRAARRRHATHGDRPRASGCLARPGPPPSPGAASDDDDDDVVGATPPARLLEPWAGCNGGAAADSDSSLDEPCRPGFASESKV

Compound | selectivity ratio [1] | selectivity ratio [2] | inhibition [3] | selectivity ratio [4] | inhibition [5] | inhibition [6] | inhibition [7] | inhibition [8] | inhibition [9] | Activity [10] | inhibition [11] | inhibition [12] | selectivity ratio [13] | Activity [14] | inhibition [15] | Time [16] | Activity [17] | inhibition [18] | inhibition [19]
CCC(CO)NC(=O)/C=C/c1ccc(Cl)cc1 (configuration not stated) | 3.65 | 3.41 | 2.1% | 5.92 | -2.9% | -2.2% | -9.2% | 18.7% | 3.7% | Non-Toxic | 18.1% | 24.5% | 1.23 | Active | -3.1% | 0.25 h | Non-Toxic | 0.3% | -2.5%
CC(O)CNC(=O)/C=C/c1ccc(Cl)cc1 (configuration not stated) | 3.24 | 4.26 | -9% | 6.47 | 0.7% | -5.5% | -5.9% | 19% | 4.6% | Non-Toxic | 15% | 23.4% | 1.25 | Active | 0.9% | 0.5 h | Non-Toxic | 9.3% | -1.9%
Cc1ccccc1/C=C/C(=O)N[C@@H](C)CO | 3.53 | 2.86 | -8% | > 19.4 | -2.8% | 7.8% | -7.5% | 17.4% | 7% | Non-Toxic | -6.1% | 81.2% | 4.18 | Active | 7.9% | 0.25 h | Non-Toxic | -1% | 0.9%
